Data from PubChem BioAssay AID1845216 (Molecular Pharmacology Branch, DTP, NCI, 2023).

Test system: SW 982 tumor spheroid viability
Assay: Anticancer human tumor SW 982 cell line growth inhibition;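 further: spheroids exposed to compound for 7 days before readout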
Conditions: spheroids with HUVEC and MSC; for IC50: curve of first compound; for viability, T/C: stronger effect = lower value
In short: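 Single agents and combinations were tested on spheroids built from tumor cells plus HUVEC and hMSC, at half-log dilutions starting at or near clinical Cmax, else 10 microM; final DMSO 0.25% (v/v).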

Molecule `COc1ccc([C@@H](O)c2cc(-c3ncnc4cc(N5CCOCC5)ccc34)c(F)cc2Cl)nn1` + Cn1nnc2c(C(N)=O)ncn2c1=O has an IC50 (second compound 1 µM) of 6.29 µM, an IC50 (second compound 3.16 µM) of 3.83 µM and an IC50 (second compound 10 µM) of 4.03 µM. For the same molecule, the IC50 (second compound 31.6 µM) was 1.18 µM, the IC50 (second compound 100 µM) was 0.283 µM and the viability, T/C (second compound 1 µM, first compound 0.0316 µM) was 90.6%. The viability, T/C (second compound 1 µM, first compound 0.1 µM) was 95.4%, the viability, T/C (second compound 1 µM, first compound 0.316 µM) was 93.3% and the viability, T/C (second compound 1 µM, first compound 1 µM) was 84.9%. It also gave a viability, T/C (second compound 1 µM, first compound 3.16 µM) of 81.6%, a viability, T/C (second compound 1 µM, first compound 10 µM) of 29.6% and a viability, T/C (second compound 3.16 µM, first compound 0.0316 µM) of 76.7%. For the same molecule, the viability, T/C (second compound 3.16 µM, first compound 0.1 µM) was 83.8%, the viability, T/C (second compound 3.16 µM, first compound 0.316 µM) was 90.1% and the viability, T/C (second compound 3.16 µM, first compound 1 µM) was 70.4%. For the same molecule, the viability, T/C (second compound 3.16 µM, first compound 3.16 µM) was 55.9%, the viability, T/C (second compound 3.16 µM, first compound 10 µM) was 26% and the viability, T/C (second compound 10 µM, first compound 0.0316 µM) was 76.9%. For the same molecule, the viability, T/C (second compound 10 µM, first compound 0.1 µM) was 70%, the viability, T/C (second compound 10 µM, first compound 0.316 µM) was 73% and the viability, T/C (second compound 10 µM, first compound 1 µM) was 57.6%. For the same molecule, the viability, T/C (second compound 10 µM, first compound 3.16 µM) was 63.2%, the viability, T/C (second compound 10 µM, first compound 10 µM) was 18.4% and the viability, T/C (second compound 31.6 µM, first compound 0.0316 µM) was 63.5%. For the same molecule, the viability, T/C (second compound 31.6 µM, first compound 0.1 µM) was 63.2%, the viability, T/C (second compound 31.6 µM, first compound 0.316 µM) was 60.4% and the viability, T/C (second compound 31.6 µM, first compound 1 µM) was 51.5%. For the same molecule, the viability, T/C (second compound 31.6 µM, first compound 3.16 µM) was 38.5%, the viability, T/C (second compound 31.6 µM, first compound 10 µM) was 25.5% and the viability, T/C (second compound 100 µM, first compound 0.0316 µM) was 59.9%. It also gave a viability, T/C (second compound 100 µM, first compound 0.1 µM) of 57.9%, a viability, T/C (second compound 100 µM, first compound 0.316 µM) of 48.1% and a viability, T/C (second compound 100 µM, first compound 1 µM) of 39.3%. For the same molecule, the viability, T/C (second compound 100 µM, first compound 3.16 µM) was 32.5% and the viability, T/C (second compound 100 µM, first compound 10 µM) was 15.6%.
